Source: patent publication US9073855B2, “BCL-2 selective apoptosis-inducing agents for the treatment of cancer and immune diseases” (AbbVie Inc., priority 2008, dated 2015)

Legend:
[1] = molecular target: GST-Bcl-2 (Homo sapiens, UniProt P10415); test: TR-FRET binding assay, GST-Bcl-2 with F-Bak peptide probe; conditions: for Ki: TR-FRET Binding Affinity
Procedure, shortened: (§1)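 Compounds were serially diluted in DMSO from a 50 μM starting solution (2× the starting concentration; 10% DMSO). Plates were incubated for 3 h at room temperature, and TR-FRET was read with 340/35 nm excitation and emission at 520/525 nm (F-Bak) and 495/510 nm (Tb antibody). Ki values were calculated using Wang's competitive-binding equation.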

[2] = molecular target: GST-Bcl-XL (Homo sapiens, UniProt Q07817); test: TR-FRET binding assay, GST-Bcl-XL with F-Bak peptide probe; conditions: TR-FRET Binding Affinity
Chain of GST-Bcl-XL (Q07817 whole entry): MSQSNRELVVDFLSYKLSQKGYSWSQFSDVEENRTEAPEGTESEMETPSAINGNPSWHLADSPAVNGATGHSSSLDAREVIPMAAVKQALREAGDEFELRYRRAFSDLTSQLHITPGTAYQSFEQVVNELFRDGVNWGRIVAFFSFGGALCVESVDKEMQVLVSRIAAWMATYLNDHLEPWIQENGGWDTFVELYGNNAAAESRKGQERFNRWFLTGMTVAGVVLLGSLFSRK
Procedure, shortened: as §1

[3] = TR-FRET, Bcl-XL Ki divided by Bcl-2 Ki
[4] = ratio of TR-FRET Ki values, Bcl-XL over Bcl-2
[5] = GST-Bcl-XL, F-Bak peptide probe

Chain of GST-Bcl-2 (P10415 whole entry): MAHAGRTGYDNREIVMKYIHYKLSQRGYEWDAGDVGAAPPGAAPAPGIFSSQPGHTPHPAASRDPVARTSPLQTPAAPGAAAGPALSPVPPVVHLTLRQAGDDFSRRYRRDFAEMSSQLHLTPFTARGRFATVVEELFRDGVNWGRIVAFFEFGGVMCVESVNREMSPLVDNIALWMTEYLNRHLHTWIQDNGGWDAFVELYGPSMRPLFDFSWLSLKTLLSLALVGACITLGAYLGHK

| Compound | Ki [1] [nM] | Binding selectivity ratio (Bcl-XL Ki/Bcl-2 Ki) [1, 3] | Ki [2] [nM] | Ki ([1]; GST-Bcl-2, F-Bak peptide probe) [nM] | Binding selectivity ratio (Bcl-XL Ki/Bcl-2 Ki) [1, 4] | Ki [2, 5] [nM] |
| --- | --- | --- | --- | --- | --- | --- |
| CC1(C)CCC(CN2CCN(c3ccc(C(=O)NS(=O)(=O)c4cnc(OCC5COCCO5)c(Cl)c4)c(Oc4cccc5[nH]ncc45)c3)CC2)=C(c2ccc(Cl)cc2)C1 (centres unmarked) [Example 488, N-{[5-chloro-6-(1,4-dioxan-2-ylmethoxy)pyridin-3-yl]sulfonyl}-4-(4-{[2-(4-chlorophenyl)-4,4-dimethylcyclohex-1-en-1-yl]methyl}piperazin-1-yl)-2-(1H-indazol-4-yloxy)benzamide] | < 0.01 | >2345.9 | 23.5 | – | – | – |
| CN1CCC(Nc2ccc(S(=O)(=O)NC(=O)c3ccc(N4CCN(CC5=C(c6ccc(Cl)cc6)CC(C)(C)CC5)CC4)cc3Oc3cccc4c3CCN4)cc2[N+](=O)[O-])CC1 [Example 395, 4-(4-{[2-(4-chlorophenyl)-4,4-dimethylcyclohex-1-en-1-yl]methyl}piperazin-1-yl)-2-(2,3-dihydro-1H-indol-4-yloxy)-N-({4-[(1-methylpiperidin-4-yl)amino]-3-nitrophenyl}sulfonyl)benzamide] | – | – | – | 0.798 | 23.6 | 18.8 |
| CC1(C)CCC(CN2CCN(c3ccc(C(=O)NS(=O)(=O)c4cnc(OCC5CCC(F)(F)CC5)c(Cl)c4)c(Oc4cccc5[nH]ncc45)c3)CC2)=C(c2ccc(Cl)cc2)C1 [Example 482, N-({5-chloro-6-[(4,4-difluorocyclohexyl)methoxy]pyridin-3-yl}sulfonyl)-4-(4-{[2-(4-chlorophenyl)-4,4-dimethylcyclohex-1-en-1-yl]methyl}piperazin-1-yl)-2-(1H-indazol-4-yloxy)benzamide] | 0.064 | 5442.9 | 350 | – | – | – |
| O=C(NS(=O)(=O)c1ccc(NCC2CCOCC2)c([N+](=O)[O-])c1)c1ccc(N2CCN(Cc3ccccc3-c3ccc(Cl)cc3)CC2)cc1Oc1cccc2ccccc12 [Example 34, 4-{4-[(4′-chloro-1,1′-biphenyl-2-yl)methyl]piperazin-1-yl}-2-(1-naphthyloxy)-N-({3-nitro-4-[(tetrahydro-2H-pyran-4-ylmethyl)amino]phenyl}sulfonyl)benzamide] | – | – | – | 1.99 | – | 88 |
| CC1(C)CCC(CN2CCN(c3ccc(C(=O)NS(=O)(=O)c4cnc(OCC5(F)CCN(CC#N)CC5)c(Cl)c4)c(Oc4cccc5[nH]ncc45)c3)CC2)=C(c2ccc(Cl)cc2)C1 [Example 419, N-[(5-chloro-6-{[1-(cyanomethyl)-4-fluoropiperidin-4-yl]methoxy}pyridin-3-yl)sulfonyl]-4-(4-{[2-(4-chlorophenyl)-4,4-dimethylcyclohex-1-en-1-yl]methyl}piperazin-1-yl)-2-(1H-indazol-4-yloxy)benzamide] | – | – | – | 0.197 | 1070.8 | 211 |
| CC1(C)CCC(CN2CCN(c3ccc(C(=O)NS(=O)(=O)c4ccc(NCC5CN(C6CC6)CCO5)c([N+](=O)[O-])c4)c(Oc4cccc5[nH]cnc45)c3)CC2)=C(c2ccc(Cl)cc2)C1 (centres unmarked) [Example 432, 2-(1H-benzimidazol-4-yloxy)-4-(4-{[2-(4-chlorophenyl)-4,4-dimethylcyclohex-1-en-1-yl]methyl}piperazin-1-yl)-N-[(4-{[(4-cyclopropylmorpholin-2-yl)methyl]amino}-3-nitrophenyl)sulfonyl]benzamide] | – | – | – | 0.023 | 408.8 | 9.3 |
| CC1(C)CC(c2ccc(Cl)cc2)=C(CN2CCN(c3ccc(C(=O)NS(=O)(=O)c4cnc(OCC5(F)CCOCC5)c(Cl)c4)c(Oc4cccc5[nH]ncc45)c3)CC2)CO1 [Example 465, N-({5-chloro-6-[(4-fluorotetrahydro-2H-pyran-4-yl)methoxy]pyridin-3-yl}sulfonyl)-4-(4-{[4-(4-chlorophenyl)-6,6-dimethyl-5,6-dihydro-2H-pyran-3-yl]methyl}piperazin-1-yl)-2-(1H-indazol-4-yloxy)benzamide] | 0.025 | 1472.4 | 37.2 | – | – | – |
